Measured values taken from patent US11230542B2, “Inhibitors of integrated stress response pathway” (Praxis Biotech LLC, priority 2017, dated 2022).
Like-named read-outs stand apart in the source and are kept apart here.

Tests used:
[1] = test system: CHO cells; assay: Protein translation assay (puromycin incorporation in CHO cells, unstressed or Tg-stressed); assay type: cell-based, Chinese hamster; settings: for activity at 0.1 µM / activity at 1 µM: Cricetulus griseus, media alone 100%; for activity at 0.1 µM: read-out: % Recovery of protein expression (100 nM test compound)
Procedure: CHO cells were maintained at 37° C. and 5% CO2 in DMEM supplemented with 10% fetal bovine serum (FBS), 2 mM L-glutamine, 100 U/ml penicillin, and 100 μg/ml streptomycin. After reaching 80% of confluence, cells were detached and seeded on 6 well plates in complete media, allowed to recover overnight and treated for 2 hours with 1 μM of the test compound (to assess protein synthesis levels in unstressed condition), or for 1 hour with 100 nM and 1 μM of the test compound and then co-treated with 300 nM Tg and 100 nM and 1 μM of the test compound (to assess the recovery of protein synthesis in a stressed condition). Cells treated with Tg alone were used as controls.
After the 2 hours treatments, media were replaced by adding 10 μg/ml puromycin (Sigma Aldrich) in complete media for 30 min. Media were removed and cells were lysed with SDS-PAGE lysis buffer. Lysates were transferred to 1.5 ml tubes and sonicated for 3 minutes and total protein amount were quantified using BCA Protein Assay Kit (Pierce). Equal amount of protein (30 μg) was loaded on SDS-PAGE gels. Proteins were transferred onto 0.2 μm PVDF membranes (BioRad) and probed with primary antibodies diluted in Tris-buffered saline supplemented with 0.1% Tween 20 and 3% bovine serum albumin.
(§1) Puromycin (12D10) antibody was used as primary antibody (Merck Millipore). A HRP-conjugated secondary antibody (Rockland) was employed to detect immune-reactive bands using enhanced chemiluminescence (ECL Western Blotting Substrate, Pierce). Quantification of protein bands was done by densitometry using ImageJ.
Percent increase of protein synthesis in unstressed cells (without Tg treatment) in the presence of media alone or certain test compounds is shown in Table 3 and FIG. 2. The percentage levels were normalized to the media alone condition, which correspond to 100% protein synthesis.
Percent recovery of protein synthesis in stressed cells (with Tg treatment) due to the test compounds at 100 nM or 1 μM is shown in FIGS. 3A and 3B, respectively, and in Table 3. The levels were normalized to the media alone and to Tg alone conditions, which correspond to 100% and 0% respectively.

[2] = test system: fasted Balb/c mice; assay: Fasting-induced muscle atrophy; assay type: in vivo, mouse
Procedure: Wild type eight-weeks-old male Balb/c mice obtained from the vivarium Fundacion Ciencia & Vida Chile (Santiago, Chile) were used. Mice were housed in independent plastic cages in a room maintained at 25° C. with a 12-h:12-h light:dark cycle.
Twenty-four hours before and during the 2 days of fasted procedures, animals received oral administration via feeding tubes (15 gauge) of vehicle (50% Polyethylene glycol 400 (Sigma-Aldrich P3265) in distilled water or 10 mg/kg of compound 3 formulated in vehicle solution.
After 2 days of fasting the animals were sacrificed and muscles were removed from both hindlimbs. Mice with feed and water ad libitum were used as control.
For in vivo measurements of protein synthesis, puromycin (Sigma-Aldrich, P8833) was prepared at 0.04 μmol/g body weight in a volume of 200 μL of PBS, and subsequently administered into the animals via IP injection, 30 min prior to muscle collection.
Upon collection, muscles were immediately frozen in liquid nitrogen and then stored at −80° C. […] Protein concentration in supernatants was determined using BCA Protein Assay Kit (Pierce). […]
Puromycin (12D10) (Merck Millipore) and β-actin (Sigma-Aldrich) antibodies were used as primary antibodies. […] Quantification of protein bands was done by densitometry using ImageJ software. […]

[3] = test system: ATF4; assay: ATF4 expression inhibition assay (thapsigargin-stressed HEK293T cells, western blot); assay type: cell-based; settings: Homo sapiens, HEK-293T; for IC50: 3 h with 100 nM Tg, test compound 1 nM to 1 μM; for inhibition at 0.1 µM: 3 h with 100 nM thapsigargin (Tg) and 100 nM test compound; for inhibition at 0.1 µM / inhibition at 1 µM: Tg alone 0%, untreated 100%; for inhibition at 1 µM: 3 h with 100 nM thapsigargin (Tg) and 1 μM test compound
Procedure: HEK293T cells were maintained at 37° C. and 5% CO2 in Dulbecco's Modified Eagle's Media (DMEM) supplemented with 10% fetal bovine serum (FBS), 2 mM L-glutamine, 100 U/ml penicillin, and 100 μg/ml streptomycin. […] Cells without treatment or cells treated with Tg alone were used as controls.
After 3 hours of treatment with Tg and the test compound, cells were lysed with SDS-PAGE lysis buffer. Lysates were transferred to 1.5 ml tubes and sonicated for 3 min, and total protein amounts were quantified using BCA Protein Assay Kit (Pierce). Equal amount of proteins were loaded on SDS-PAGE gels. Proteins were transferred onto 0.2 μm PVDF membranes (BioRad) and probed with primary antibodies diluted in Tris-buffered saline supplemented with 0.1% Tween 20 and 3% bovine serum albumin.
as §1, with “ATF4 (11815)” for “Puromycin (12D10)”, “(Cell Signaling Technologies).” for “(Merck Millipore).”, “horseradish peroxidase (HRP)-conjugated” for “HRP-conjugated”
Percentages of ATF4 inhibition after induction with Tg in the presence of 100 nM or 1 μM of certain test compounds are shown in Table 2 and FIG. 1. Percentage of ATF4 inhibition was calculated as the percent reduction normalized to Tg treatment (0% inhibition) and untreated cells (100% inhibition). Also shown in Table 2 is the calculated IC50 for the test compounds. […] Accordingly, inhibition of ATF4 expression as a result of the test compound indicates suppression of the ISR pathway.

[4] = CHO cells stressed with 300 nM Tg, Tg alone 0%
[5] = CHO cells stressed with 300 nM Tg, Tg alone 0%, read-out: % Recovery of protein expression (1 μM test compound)
[6] = unstressed CHO cells, 2 h, read-out: % Protein expression relative to untreated (1 μM test compound)

Row | IC50 [3] [nM] | Structure (SMILES) | activity at 0.1 µM [1, 4] [%] | activity at 1 µM [1, 5] [%] | activity at 1 µM [1, 6] [%] | ATF4 staining in muscle fiber CSA [2] | inhibition at 0.1 µM [3] [%] | inhibition at 1 µM [3] [%] | protein translation ([1]; summary of Table 3) | protein synthesis in a cell versus ATF4 translation ([1]; under ISR-stressed or non-ISR stressed conditions)
1 | 49 | O=C(NC1CCN(C[C@H](O)COc2ccc(Cl)c(F)c2)CC1)c1ccc2cc(Cl)ccc2n1 (single isomer, unassigned) [Compound 152, (+)-6-chloro-N-(1-(3-(4-chloro-3-fluorophenoxy)-2-hydroxypropyl)piperidin-4-yl)quinoline-2-carboxamide] | 99.1 | 280 | 239 | No staining was detected | 86 | 91 | – | –
2 | – | O=C(COc1ccc(Cl)c(F)c1)N[C@H]1CC[C@H](NC(=O)C2Cc3cc(Cl)ccc3O2)CC1 (stereo partly drawn) [Compound 19, trans-5-chloro-N-(4-(2-(4-chloro-3-fluorophenoxy)acetamido)cyclohexyl)-2,3-dihydrobenzofuran-2-carboxamide] | 14.1 | 116 | – | – | 94 | 100 | – | –
3 | 27 | O=C(COc1ccc(Cl)c(F)c1)NC1CCN(CC(O)COc2ccc(Cl)c(F)c2)CC1 (single isomer, unassigned; (-)) [Compound 26, (−)-2-(4-chloro-3-fluorophenoxy)-N-(1-(3-(4-chloro-3-fluorophenoxy)-2-hydroxypropyl)piperidin-4-yl)acetamide] | 34.2 | 176 | 112 | – | 91 | 97 | – | –
4 | – | O=C(NC1CCN(C[C@@H](O)COc2ccc(Cl)c(F)c2)CC1)c1ccc2cc(Cl)ccc2n1 (single isomer, unassigned) [Compound 153, (−)-6-chloro-N-(1-(3-(4-chloro-3-fluorophenoxy)-2-hydroxypropyl)piperidin-4-yl)quinoline-2-carboxamide] | 51.5 | 236 | 323 | – | 0 | 0 | increased protein translation | increase protein synthesis in a cell without full inhibition of ATF4 translation
5 | 103 | O=C(NC1CCN(CC(O)COc2ccc(Cl)c(F)c2)CC1)c1ccc2cc(Cl)ccc2n1 (stereo not drawn) [Compound 22, 6-chloro-N-(1-(3-(4-chloro-3-fluorophenoxy)-2-hydroxypropyl)piperidin-4-yl)quinoline-2-carboxamide] | 67.3 | 264 | 170 | – | 21 | 81 | – | –
6 | 9.1 | O=C(COc1ccc(Cl)cc1)N[C@H]1CC[C@H](NC(=O)[C@@H]2CNc3cc(Cl)ccc3O2)CC1 (single isomer, unassigned) [Compound 158, (+)-trans-6-chloro-N-(4-(2-(4-chlorophenoxy)acetamido)cyclohexyl)-3,4-dihydro-2H-benzo[b][1,4]oxazine-2-carboxamide] | 86.8 | 199 | 168 | – | 96 | 96 | – | –
7 | – | O=C(NC1CCN(CCCOc2ccc(Cl)c(F)c2)CC1)c1cc2cc(Cl)ccc2o1 [Compound 148, 5-chloro-N-(1-(3-(4-chloro-3-fluorophenoxy)propyl)piperidin-4-yl)benzofuran-2-carboxamide] | 37.2 | 250 | 123 | – | 30 | 90 | – | –
8 | 13.7 | O=C(N[C@H]1CC[C@H](NC[C@@H](O)COc2ccc(Cl)c(F)c2)CC1)c1cc2cc(Cl)ccc2o1 (single isomer, unassigned) [Compound 154, (+)-trans-5-chloro-N-(4-((3-(4-chloro-3-fluorophenoxy)-2-hydroxypropyl)amino)cyclohexyl)benzofuran-2-carboxamide] | 96.3 | 234 | 188 | – | 92 | 96 | – | –
9 | – | O=C(COc1ccc(Cl)c(F)c1)N[C@H]1CC[C@H](NCC(O)COc2ccc(Cl)cc2)CC1 (stereo partly drawn) [Compound 10, trans-2-(4-chloro-3-fluorophenoxy)-N-(4-((3-(4-chlorophenoxy)-2-hydroxypropyl)amino)cyclohexyl)acetamide] | 30.6 | 127 | – | – | 0 | 11 | – | –
10 | 23.8 | O=C(COc1ccc(Cl)cc1)N[C@H]1CC[C@H](NC(=O)C2CNc3cc(Cl)ccc3O2)CC1 (single isomer, unassigned; (-)) [Compound 157, (−)-trans-6-chloro-N-(4-(2-(4-chlorophenoxy)acetamido)cyclohexyl)-3,4-dihydro-2H-benzo[b][1,4]oxazine-2-carboxamide] | 39.7 | 97.3 | 118 | – | 96 | 100 | – | –

Row | Structure (SMILES) | IC50 [3] [nM] | activity at 0.1 µM [1, 4] [%] | activity at 1 µM [1, 5] [%] | activity at 1 µM [1, 6] [%] | ATF4 staining in muscle fiber CSA [2] | inhibition at 0.1 µM [3] [%] | inhibition at 1 µM [3] [%] | protein translation ([1]; summary of Table 3) | protein synthesis in a cell versus ATF4 translation ([1]; under ISR-stressed or non-ISR stressed conditions)
11 | O=C(COc1ccc(Cl)c(F)c1)N[C@H]1CC[C@H](NCC(O)COc2ccc(Cl)c(F)c2)CC1 (stereo partly drawn) [Compound 2, trans-2-(4-chloro-3-fluorophenoxy)-N-(4-((3-(4-chloro-3-fluorophenoxy)-2-hydroxypropyl)amino)cyclohexyl)acetamide] | 163 | 42.5 | 135 | 136 | – | 40 | 56 | – | –
